{
  "source": "patent US20260232693A1",
  "about": "“IMPROVING GLYMPHATIC-LYMPHATIC EFFLUX” (UNIVERSITY OF ROCHESTER, priority 2023, published 2026)",
  "format_in_all_cases": "in vivo, C57BL/6 mice",
  "key": {"[1]": {"test_system": "cervical lymph nodes (cLNs)", "experiment": "Ex vivo cervical lymph node imaging of OVA-647 accumulation", "details": "90 min", "procedure": "One microliter PBS with or without 5 μM PGF2a was applied directly onto the cervical lymph vessel simultaneously with the injection of OVA-647 (0.5% w/v, 45 kDa, Invitrogen, 10 μL, 2 μL/min) into cisterna magna for 90 min. Then the superficial and deep cervical lymph nodes were dissected and put on the microscope slices (Fisherbrand). The lymph nodes were placed under the macroscope (MVX10 Research Macro Zoom Microscope, 633 Olympus). The images were acquired in the far-red emission channel (647 nm)."}, "[2]": {"experiment": "Measurement of vital signs (heart and respiratory rate) before and after PGF2α", "details": "topical PGF2α; young and old mice", "procedure": "Heart and respiratory rate were measured using a small animal physiological monitoring 494 device (Harvard Apparatus) which acquired measurements at 1 kHz and 250 Hz, respectively. The signals were digitized and recorded with a DigiData 1550A digitizer and AxoScope software 496 (Axon Instruments)."}, "[3]": {"test_system": "superficial cervical lymph vessels", "experiment": "DB53 brain clearance assay (intrastriatal injection, brain retention and femoral vein signal)", "procedure": "Clearance assay was conducted using our published method (Pla, V. et al. A real-time in vivo clearance assay for quantification of glymphatic efflux. Cell Rep 40, 111320 (2022)). Briefly, anesthetized mice were mounted in a stereotactic apparatus and a small burr hole was made (AP+0.6 mm; ML-2.0 mm). A guide cannula (26G, […] SPC, 4.5 mm below pedestal) and dummy cannula ([…], 0.1 mm projection) was placed at DV 3.3 mm. After 48 hr, the dummy cannula was replaced by the inner cannula (33G, […]/SP, 0.1 mm projection), connected by a PE10 tubing to a 10 μL Hamilton syringe containing 4% (w/v) DB53 in sterile aCSF. The left femoral vein was exposed via skin resection and was placed under a fluorescent macroscope (microscope: MVX10, Olympus; light: PRIOR Lumen 1600-LED; camera: Flash 4.0 digital, Hamamatsu). The pump infusion (1 μL, […]) was triggered simultaneously with the imaging over the vein, once every 15 min for 2 h for the intraparenchymal delivery. […] At the end of the experiment, animals were decapitated, and their brains were harvested for postmortem analysis. For quantitative image analysis for femoral vein and ex vivo in the brain is the same as described in Pla, V. et al. A real-time in vivo clearance assay for quantification of glymphatic efflux. Cell Rep 40, 111320 (2022)."}, "[4]": {"test_system": "cervical lymphatic vessels (cLVs)", "experiment": "Epi-fluorescent macroscopic imaging of OVA-647 CSF tracer drainage in cervical lymphatic vessels", "details": "60 min imaging, 5 μM PGF2α topical", "procedure": "Ovalbumin-conjugated to Alexa Fluor 647 (OVA-647, 0.5% w/v, 45 kDa, Invitrogen, 10 μL, 2 μL/min) was injected into the cisterna magna through a 30G needle connected to PE-10 tubing using a syringe pump (Harvard Apparatus). Cervical lymphatic vessels were surgically exposed as before and imaged using a fluorescent macroscope (MVX10, Olympus) with a PRIOR Lumen 1600-LED light source and ORCA Flash 4.0 digital camera (Hamamatsu) using Metamorph software. The images at 20× magnification from the far-red emission channel (647 nm) were collected at 1 min intervals for 60 min following the start of the injection. Exposure time was kept constant across all the experimental groups. One microliter PBS with or without 5 μM PGF2a was applied directly onto the cervical lymph vessel simultaneously with the injection of OVA-647 into cisterna magna."}, "[5]": {"test_system": "cervical lymphatic vessels (cLVs)", "experiment": "2P-OPTIC two-photon imaging with particle tracking of cervical lymphatic vessel contraction and flow, before and after topical PGF2α", "details": "for decrease in retrograde fraction / ejection rate / increase in ejection fraction / increase in ejection volume / median vessel diameter: after vs before PGF2α; for retrograde fraction after PGF2α / ejection fraction after PGF2α: mean±SEM; for increase in intrinsic pulsation rate: after vs before topical PGF2α 5 μM"}},
  "note": "Entries after “also recorded” stand apart in the source; their conditions may differ.",
  "data": [
    {"smiles": "CCCCC[C@H](O)/C=C/[C@@H]1[C@@H](C/C=C\\CCCC(=O)O)[C@@H](O)C[C@H]1O", "note": "[PGF2α, prostaglandin F2α]", "values": [
      {"measurement": "accumulation of OVA647 in cLNs, ex vivo", "setting": "[1]; 2-month-old mice", "result": "significantly larger accumulation"},
      {"measurement": "accumulation of OVA647 in cLNs, ex vivo", "setting": "[1]; 22-month-old mice", "result": "significantly larger accumulation"},
      {"measurement": "respiratory rate", "setting": "[2]", "result": "did not induce changes; also recorded: unaffected"},
      {"measurement": "DB53 signal in the femoral vein", "setting": "[3]; 75 min, control 4.6±0.8", "result": "8.3±1.3"},
      {"measurement": "DB53 signal in the femoral vein", "setting": "[3]; 90 min, control 5.5±0.6", "result": "10.3±1.5"},
      {"measurement": "DB53 signal in the femoral vein", "setting": "[3]; 105 min, control 6.6±0.7", "result": "10.8±1.4"},
      {"measurement": "DB53 signal in the femoral vein", "setting": "[3]; 120 min, control 6.8±0.7", "result": "11.45±8.3"},
      {"measurement": "DB53 signal in the femoral vein (brain clearance to plasma), overall vs control", "setting": "[3]; 2 h imaging", "result": "dramatically increased"},
      {"measurement": "DB53 retained in the brain (% area of DB53 fluorescence)", "setting": "[3]; after intrastriatal DB53, control 10.1±1.3, mean±SEM", "result": "6.3±0.9", "unit": "% area"},
      {"measurement": "CSF drainage of OVA647 tracer (fluorescence intensity in cLVs)", "setting": "[4]; old (22-month-old) mice", "result": "promoted robust CSF drainage"},
      {"measurement": "CSF drainage of OVA647 tracer (fluorescence intensity in cLVs)", "setting": "[4]; young mice", "result": "promoted robust CSF drainage"},
      {"measurement": "decrease in retrograde fraction", "setting": "[5]; 2-month-old mice", "result": 64.2, "unit": "%"},
      {"measurement": "ejection rate", "setting": "[5]; 2-month-old mice", "result": "no change"},
      {"measurement": "increase in ejection fraction", "setting": "[5]; 2-month-old mice", "result": 7.0, "unit": "%"},
      {"measurement": "increase in ejection volume", "setting": "[5]; 2-month-old mice", "result": 148.6, "unit": "%"},
      {"measurement": "median vessel diameter", "setting": "[5]; 2-month-old mice", "result": "decreased"},
      {"measurement": "retrograde fraction after PGF2α", "setting": "[5]; 2-month-old mice, before: 8.1±1.0", "result": "2.9±0.6", "unit": "%"},
      {"measurement": "ejection fraction after PGF2α", "setting": "[5]; 2-month-old mice, before: 90.8±0.8", "result": "97.1±0.6", "unit": "%"},
      {"measurement": "increase in CSF drainage (number of microsphere particles detected in cLVs)", "setting": "[5]; 2-month-old mice, intracisternal fluorescent microspheres", "result": 35.4, "unit": "%"},
      {"measurement": "decrease in retrograde fraction", "setting": "[5]; 22-month-old mice", "result": 83.6, "unit": "%"},
      {"measurement": "ejection rate", "setting": "[5]; 22-month-old mice", "result": "no change"},
      {"measurement": "increase in ejection fraction", "setting": "[5]; 22-month-old mice", "result": 31.7, "unit": "%"},
      {"measurement": "increase in ejection volume", "setting": "[5]; 22-month-old mice", "result": 181.4, "unit": "%"},
      {"measurement": "median vessel diameter", "setting": "[5]; 22-month-old mice", "result": "decreased"},
      {"measurement": "retrograde fraction after PGF2α", "setting": "[5]; 22-month-old mice, before: 27.5±2.1", "result": "4.5±0.4", "unit": "%"},
      {"measurement": "ejection fraction after PGF2α", "setting": "[5]; 22-month-old mice, before: 72.5±2.1", "result": "95.5±0.5", "unit": "%"},
      {"measurement": "solute arriving to the cLN (particle count) compared to untreated aged controls", "setting": "[5]; aged mice, intracisternal fluorescent microspheres", "result": "~4", "unit": "times"},
      {"measurement": "increase in intrinsic pulsation rate", "setting": "[5]; old (22-month-old) mice", "result": 152.0, "unit": "%"},
      {"measurement": "increase in flow speeds", "setting": "[5]; old mice, after vs before topical PGF2α", "result": 3.5, "unit": "fold"},
      {"measurement": "contraction amplitude (Δd)", "setting": "[5]; vs before PGF2α", "result": "increased"},
      {"measurement": "increase in intrinsic pulsation rate", "setting": "[5]; young (2-month-old) mice", "result": 50.7, "unit": "%"},
      {"measurement": "increase in downstream speed", "setting": "[5]; young mice, after vs before topical PGF2α", "result": 103.1, "unit": "%"}
    ]}
  ]
}
